Assay results from ChEMBL document CHEMBL1201862, “PubChem BioAssay data set” (2004).
Activity calls are given as the source filed them.

What was measured:
[1] = reduction of Shn3 3'UTR-driven luciferase in osteoblasts – cell-based, Clone20 osteoblasts, firefly luciferase, cherry-picked, dose response (AID 624132); format: functional;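 also: firefly luciferase luminescence from reporter carrying the Shn3 3'UTR in osteoblasts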
[2] = HIV-1 AD8 envelope cell-cell fusion blockers – cherry-pick, dose response (AID 652062); format: functional, cell-based;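 also: luciferase signal from cell-cell fusion driven by HIV-1 clade B AD8 Env; potency is for inhibitors of fusion seen as a drop in luminescence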
HEK293 [3] = assay: EBV LMP1 TES2 canonical NF-kB signalling blockers – cell-based, HEK293, luciferase, cherry-pick, dose response (AID 588343); format: functional; conditions: Homo sapiens
[4] = non-specific 3'UTR reporter inhibition in Clone20-Shn3RL – cell-based, Renilla luciferase, cherry-picked, counter-screen for Shn3 inhibitor project, dose response (AID 624133); format: functional
[5] = molecular target: COUP transcription factor 2 (Homo sapiens, UniProt P24468); assay: Luminescence-based cell-based high throughput dose response assay to identify inhibitors of COUP-TFII (NR2F2).; format: functional;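 also: HEK293 cells transiently cotransfected with COUP-TFII expression vector and reporter; luciferase reporter luminescence driven by COUP-TFII from the pX2-168 reporter plasmid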
[6] = loss of viability in HepG2 cells – cell-based, CellTiter-Glo, cherry-picked, cytotoxicity control for Shn3 inhibitor project, dose response (AID 624134); format: functional
[7] = blockers of HIV-1 ZM109 envelope-driven cell-cell fusion – HeLa effector, CEM target cells, luciferase, cherry-pick, dose response (AID 652058); format: functional, cell-based;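 also: luciferase signal from HIV-1 Env mediated cell-cell fusion of effector and target cells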
[8] = blockers of HIV-1 envelope-mediated cell-cell fusion – cherry-pick, dose response (AID 652057); format: functional, cell-based
[9] = off-target signal loss in HeLa-CEM21 co-culture – HeLa F-luc CTL cells, cherry-picked, counter-screen for HIV-1 Env fusion inhibitor project, dose response (AID 652040); format: functional, cell-based;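 also: potency for signal decrease marking cytotoxic or nonspecific inhibition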
INS1 = assay: INS-1E survival protection against cytokine death – cell-based, luminescence, retest, dose response (AID 449756); format: functional; conditions: Rattus norvegicus;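 also: cell death triggered by IL-1 beta plus TNF-alpha plus IFN-gamma mixture; protective hits raise ATP signal compared with cytokine alone wells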
[10] = viability loss in HEK293 cells – cell-based, plate reader, cherry-picked samples, cytotoxicity control, dose response (AID 743446); format: functional
[11] = toxicity toward HepG2 liver cells – cell-based, plate reader, cherry-pick, antagonist series, cytotoxicity control, dose response (AID 743416); format: functional
[12] = blockers of bursicon-stimulated LGR2 cAMP reporter – cell-based, HEK293, CRE-luciferase reporter, cherry pick, set 2, dose response (AID 743343); format: functional;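 also: transfected cells were stimulated with diluted bursicon conditioned medium after compound addition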
[13] = A549 cell cytotoxicity, dose response, cytotoxicity control, plate reader, cherry-pick, antagonist series (AID 743412); format: functional, cell-based
cells [14] = format: functional, cell-based
[15] = molecular target: T1, Trace amine-associated receptor 1 (Homo sapiens, UniProt Q96RJ0); assay: Fluorescence-based cell-based high throughput dose response assay to identify agonists of the human trace amine associated receptor 1 (TAAR1).; format: functional
T1 sequence (Q96RJ0 whole entry): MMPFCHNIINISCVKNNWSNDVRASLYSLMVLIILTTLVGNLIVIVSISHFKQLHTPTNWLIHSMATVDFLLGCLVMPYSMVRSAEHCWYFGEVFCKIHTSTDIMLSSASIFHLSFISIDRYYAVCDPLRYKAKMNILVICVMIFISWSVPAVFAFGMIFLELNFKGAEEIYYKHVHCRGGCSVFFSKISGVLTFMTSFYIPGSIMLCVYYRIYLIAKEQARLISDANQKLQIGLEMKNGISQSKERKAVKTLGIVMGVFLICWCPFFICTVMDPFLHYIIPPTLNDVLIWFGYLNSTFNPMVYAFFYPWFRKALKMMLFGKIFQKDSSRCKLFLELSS

cells [16] = format: functional, cell-based; remark: listed apart in the source
[17] = molecular target: T1, Trace amine-associated receptor 1; assay: Counterscreen for agonists of the human trace amine associated receptor 1 (hTAAR1): Fluorescence-based cell-based high throughput dose response assay to identify hTAAR1 agonist that also desensitize TAAR1 receptor response.; format: functional
[18] = molecular target: NAD-dependent protein deacylase sirtuin-5, mitochondrial (Homo sapiens, UniProt Q9NXA8); assay: sirtuin-5 deacylation blockers, concentration series – biochemical, fluorescence imaging, cherry-pick, set 5, dose response (AID 720591);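 also: desuccinylation of succinyl peptide AMC substrate read as fluorescence after trypsin release; potency of inhibitors that lower fluorescence and may act on trypsin instead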
[19] = blockade of melanocortin 4 receptor signaling – cell-based, plate reader, cherry pick, counter-screen for LGR2 antagonist project, dose response (AID 743444); format: functional;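 also: transfected HEK 293 cells stimulated with alpha-MSH peptide; potency of inhibitors of the alpha-MSH evoked signal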
[20] = molecular target: T2, Microphthalmia-associated transcription factor (Homo sapiens, UniProt O75030); assay: reducers of TRPM1 reporter luminescence, concentration series – cell-based, SK-MEL-5, cherry-picked, set 3, MITF inhibitor project, dose response (AID 493073); format: functional;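 also: SK-MEL-5 melanoma cells with luciferase driven by the MITF target TRPM1 promoter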
T2 sequence (O75030 whole entry): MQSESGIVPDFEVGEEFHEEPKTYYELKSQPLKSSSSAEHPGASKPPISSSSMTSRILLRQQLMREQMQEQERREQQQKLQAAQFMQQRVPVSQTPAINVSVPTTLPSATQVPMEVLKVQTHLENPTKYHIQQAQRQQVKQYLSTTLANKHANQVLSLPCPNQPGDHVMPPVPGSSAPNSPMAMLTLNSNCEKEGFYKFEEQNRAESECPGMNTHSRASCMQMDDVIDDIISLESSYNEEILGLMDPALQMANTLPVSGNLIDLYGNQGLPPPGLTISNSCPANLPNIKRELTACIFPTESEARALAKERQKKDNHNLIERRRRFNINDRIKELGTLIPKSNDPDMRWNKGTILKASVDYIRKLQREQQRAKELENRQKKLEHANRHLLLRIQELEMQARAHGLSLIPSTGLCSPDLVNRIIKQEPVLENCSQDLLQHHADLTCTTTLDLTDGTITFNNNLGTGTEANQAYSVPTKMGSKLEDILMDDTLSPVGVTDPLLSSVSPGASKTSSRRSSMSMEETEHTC

[21] = HEK-293T viability loss after treatment – luminescence, T-cell screen hits, cytotoxicity control for TCR NF-kB inhibitor project, dose response (AID 489026); format: functional, cell-based;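 also: cells exposed to compound about 14 hours before the viability readout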
[22] = viability loss in CEM21 cells – cell-based, CellTiter-Glo luminescence, cherry-picked, cytotoxicity control for viral fusion inhibitor project, dose response (AID 652042); format: functional;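 also: potency for signal decrease meaning cytotoxicity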
HEK293 [23] = assay: cells; conditions: Homo sapiens
HEK293 [24] = assay: cells; conditions: Homo sapiens; remark: listed apart in the source
[25] = molecular target: Tyrosyl-DNA phosphodiesterase 2 (Homo sapiens, UniProt O95551); assay: potency against TDP2 phosphodiesterase activity – biochemical, epi absorbance, IC50, dose response (AID 743297)
[26] = viability loss in HEK293 kidney cells – cell-based, cherry-picks, set 5, cytotoxicity control, dose response (AID 1053117); format: functional

Sequence of Tyrosyl-DNA phosphodiesterase 2 (O95551 whole entry): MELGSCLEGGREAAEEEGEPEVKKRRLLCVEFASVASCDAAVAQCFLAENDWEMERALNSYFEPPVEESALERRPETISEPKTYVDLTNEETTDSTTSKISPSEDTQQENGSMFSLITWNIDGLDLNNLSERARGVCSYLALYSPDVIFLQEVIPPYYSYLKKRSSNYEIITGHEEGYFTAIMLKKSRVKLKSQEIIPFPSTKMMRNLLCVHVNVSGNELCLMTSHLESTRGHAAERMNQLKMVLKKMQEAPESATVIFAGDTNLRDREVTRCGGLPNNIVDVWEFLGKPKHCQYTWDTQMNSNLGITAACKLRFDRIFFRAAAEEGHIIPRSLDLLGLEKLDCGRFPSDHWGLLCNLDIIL
Sequence of NAD-dependent protein deacylase sirtuin-5, mitochondrial (Q9NXA8 whole entry): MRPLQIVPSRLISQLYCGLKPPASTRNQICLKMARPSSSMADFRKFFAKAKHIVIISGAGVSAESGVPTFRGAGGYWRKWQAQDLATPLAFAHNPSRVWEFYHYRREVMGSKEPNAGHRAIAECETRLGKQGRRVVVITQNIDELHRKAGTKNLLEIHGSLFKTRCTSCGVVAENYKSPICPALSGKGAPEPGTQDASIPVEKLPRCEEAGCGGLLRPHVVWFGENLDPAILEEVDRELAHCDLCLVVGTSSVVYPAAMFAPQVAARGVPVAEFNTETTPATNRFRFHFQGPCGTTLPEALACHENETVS
Sequence of COUP transcription factor 2 (P24468 whole entry): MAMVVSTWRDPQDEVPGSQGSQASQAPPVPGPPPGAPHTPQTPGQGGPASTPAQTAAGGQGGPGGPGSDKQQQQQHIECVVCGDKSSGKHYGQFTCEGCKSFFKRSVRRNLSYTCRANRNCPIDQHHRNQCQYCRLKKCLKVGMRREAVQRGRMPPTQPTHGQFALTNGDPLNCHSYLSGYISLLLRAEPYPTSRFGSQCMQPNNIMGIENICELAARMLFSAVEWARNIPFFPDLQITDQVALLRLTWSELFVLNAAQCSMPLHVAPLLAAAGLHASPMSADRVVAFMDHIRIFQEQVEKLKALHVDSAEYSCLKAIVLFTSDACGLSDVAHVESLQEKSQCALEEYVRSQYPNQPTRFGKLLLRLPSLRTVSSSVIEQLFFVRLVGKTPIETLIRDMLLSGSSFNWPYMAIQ

COc1ccc(CNc2ncnc3ccccc23)cc1
inactive: IC50 [5] 10.7 µM | AC50 [9] > 70 µM
active: AC50 [1] 0.674 µM | AC50 [2] 5.24 µM | AC50 (HEK293 [3]) 33.1 µM | AC50 [4] 5.4 µM | AC50 [6] 3.67 µM | AC50 [7] 24.9 µM | AC50 [8] 36.2 µM

CC(=O)c1ccc(Nc2cc(C)nc3c(C)cc(C)cc23)cc1
active: AC50 (INS1) 5.22 µM | AC50 [10] 23.9 µM | AC50 [11] 1.9 µM | AC50 [12] 40.3 µM | AC50 [13] 2.54 µM

COc1ccc2cc(CN(CCc3ccccc3)Cc3nnnn3CC3CCCO3)c(O)nc2c1 (stereo unspecified)
inactive: IC50 (cells [14]) > 29.9 µM | EC50 (cells [16]) > 29.9 µM
active: EC50 [15] 4.42 µM | IC50 [17] 8.83 µM

CC(C)(C)NC(=O)CSc1nc2cccnc2n1C1CCCCC1
inactive: AC50 [18] > 30 µM

CCn1c(C)cc(C(=O)CN2C(=O)c3ccccc3S2(=O)=O)c1C
active: AC50 [19] 1.16 µM | AC50 [2] 0.358 µM | AC50 [7] 7.25 µM | AC50 [20] 1.99 µM | AC50 [8] 2.09 µM | AC50 [9] 4.71 µM | AC50 [12] 1.46 µM
inactive: IC50 [21] > 80 µM

CC(=O)Nc1ccc(N(CC(O)Cn2c3ccccc3c3ccccc32)S(=O)(=O)c2ccc(C)cc2)cc1 (stereo unspecified)
inactive: EC50 (HEK293 [23]) > 59.7 µM | EC50 (HEK293 [24]) > 59.7 µM
active: AC50 [2] 2.8 µM | AC50 [7] 0.558 µM | AC50 [22] 28.4 µM | AC50 [8] 0.507 µM | AC50 [9] 1.6 µM

COC1=C(N2CCOCC2)C(=O)c2ccccc2C1=O
inactive: IC50 [25] 77.2 µM

C=CCC[C@H](Cc1ccc(F)cc1)C(=O)OC[C@H](Cc1c[nH]c2ccccc12)NC(=O)[C@@H](CC=C)CC(=O)N[C@@H](CO)Cc1ccccc1
inactive: AC50 [26] > 52 µM
